{
  "source": "patent US20050226899A1",
  "about": "“Cosmetic mask composition” (priority 2004, published 2005)",
  "origin": "cited, not measured here",
  "tested_on": "skin",
  "settings": "lotion, up to 5% by weight retinoic acid",
  "data": [
    {"smiles": "CC1=C(/C=C/C(C)=C/C=C/C(C)=C/C(=O)O)C(C)(C)CCC1", "note": "[retinoic acid]", "values": [
      {"measurement": "irritative phenomena", "result": "some treatments had to be interrupted due to the onset of significant irritative phenomena"}
    ]}
  ]
}
